Source: US8440794B2, “Peptide sequences, their branched form and use thereof for antimicrobial applications” (Universita' Degli Studi di Siena, priority 2008, dated 2013)
In brackets after ≈: the same amount, converted by molar mass. Where a SMILES comes first, the peptide text is derived from it. Bridges are numbered along the chain shown (N, C = ends). Roman numbers before positions name the chains, in order. [ ]: non-standard residue; d: D form. βAla = NCCC(=O)O

Columns and labels:
[1] = test system: P. aeruginosa ATCC 27853; assay: Bacterial load of P. aeruginosa in a mouse sepsis model; format: in vivo; details: P. aeruginosa 1 × 10^7 CFU/mouse ip, M33 25 mg/Kg
Procedure: After 40 hours, all sampled body sites were apparently clear of bacteria (Table 2).

[2] = test system: K pneumoniae 7086042; format: cell-based, Klebsiella pneumoniae; details: 7086042, 24 h
Procedure: (§1) M33, […], M35 and M36 MICs were determined against strains of several bacterial species, including Gram-negative pathogens and also Staphylococcus aureus (Table 1). MICs in the micromolar range were observed against several Gram-negatives including Pseudomonas aeruginosa, Acinetobacter baumannii and most Enterobacteriaceae, with the exception of Proteus mirabilis, Serratia marcescens and Burkholderia cepacia. Activity of peptides was retained against MDR strains with various resistance mechanisms (such as extended-spectrum beta-lactamases and carbapenemases), including MDR P. aeruginosa strains from CF patients. Antimicrobial profile of M33, […] and potency were overall similar to those of polymyxin B, although M33, M34, M35 and M36 also appeared to have some activity against S. aureus (Table 1).

[3] = test system: K pneumoniae FIPP-1; format: cell-based, Klebsiella pneumoniae; details: FIPP-1, 24 h
Procedure: as §1

[4] = test system: K pneumoniae C8-27; format: cell-based, Klebsiella pneumoniae; details: C8-27, 24 h
Procedure: as §1

[5] = test system: LPS from K. pneumoniae ATCC15380; TNF-α secretion by Raw 264.7 macrophages; assay: Inhibition of LPS-induced TNF-α secretion by Raw 264.7 macrophages, LPS from K. pneumoniae; format: cell-based
Procedure: FIG. 3. Inhibition of TNF-α release by neutralization of LPS. A, Raw 264.7 cells were incubated with LPS from P. aeruginosa 20 ng/ml and M33. Triangles indicate incubation with LPS and different concentrations of M33. Squares indicate incubation with M33 only. B, Raw 264.7 cells were incubated with LPS from K. pneumoniae 5 ng/ml and M33. Triangles indicate incubation of macrophages with LPS and different concentrations of M33. Squares indicate incubation of macrophages with M33 only. SD derived by means of three different experiments. 100% indicates the maximum amount of TNF-α produced by macrophages when incubated with LPS without M33. The other percentages indicate the amount of TNF-α produced by macrophages when incubated with LPS and M33, with respect to 100%. Basal levels of TNF-α were negligible. MIC of M33 is indicated by the arrow.
Then it was examined for inhibiting LPS-induced TNF-α, secretion by Raw 264.7 macrophages.

[6] = format: in vivo; details: animals treated ip with 100 mg/Kg (not shown)
[7] = test system: E. coli TG1; assay: Antibacterial activity against E. coli TG1 cells (CFU count after 75 min incubation, FIG. 1A); format: cell-based; details: 75 minutes at 37° C., CFU counted
Description: FIG. 1. A, Antibacterial activity against E. coli TG1 cells. Comparison of the following tetra-branched peptides: M6 batch 1 synthesis (triangles), M6 batch 2 synthesis (squares), M6 batch 3 synthesis (white circles), which contain a mixture of Gln and pyroGlu (in unknown percentages) as first amino-acid, […] (asterisks), where the first amino-acid is 100% pyroGlu, and M33 (black circles), in which the first Gln was deleted. […] SD derived by means of three different experiments. Many different syntheses of M33 (and also of M34, M35 and M36, here not shown) gave perfectly overlapping results without any wavering outcome. B, Mass spectrometry analysis of tetra-branched peptide M6 crude mixture. Calculated molecular mass of M6 was 5195 Da. Two main peaks are present, one at 5197 Da corresponding to unmodified M6 and one at 5179 Da that corresponds to the secondary product with one pyroGlu in first position in the place of one of the four Gln. C, Mass spectrometry analysis of tetrabranched peptide M33 after 24 hours of incubation in serum. The peptide appears as a single peak at the expected molecular mass (4683 Da).
A single colony of E. coli TG1 strain was cultured in 2×TY medium to 0.2 OD^600. […] The following day colonies (CFU/ml) grown on plates were counted.

[8] = test system: P. aeruginosa SC-GMm03-05; format: cell-based, Pseudomonas aeruginosa; details: SC-GMm03-05, 24 h
Procedure: as §1

[9] = test system: P. aeruginosa SC-DMr05-04; format: cell-based, Pseudomonas aeruginosa; details: SC-DMr05-04, 24 h
Procedure: as §1

[10] = test system: P. aeruginosa SC-MDr03-06; format: cell-based, Pseudomonas aeruginosa; details: SC-MDr03-06, 24 h
Procedure: as §1

[11] = test system: P. aeruginosa PAO-1; format: cell-based, Pseudomonas aeruginosa; details: PAO-1, 24 h
Procedure: as §1

[12] = test system: P. aeruginosa AV65; format: cell-based, Pseudomonas aeruginosa; details: AV65, 24 h
Procedure: as §1

[13] = test system: P. aeruginosa SC-BGr12-02; format: cell-based, Pseudomonas aeruginosa; details: SC-BGr12-02, 24 h
Procedure: as §1

[14] = test system: P. aeruginosa SC-MDm03-02; format: cell-based, Pseudomonas aeruginosa; details: SC-MDm03-02, 24 h
Procedure: as §1

[15] = test system: P. aeruginosa EF-OBG6-1; format: cell-based, Pseudomonas aeruginosa; details: EF-OBG6-1, 24 h
Procedure: as §1

[16] = test system: P. aeruginosa VR-143/97; format: cell-based, Pseudomonas aeruginosa; details: VR-143/97, 24 h
Procedure: as §1

[17] = test system: P. aeruginosa SC-CNm03-07; format: cell-based, Pseudomonas aeruginosa; details: SC-CNm03-07, 24 h
Procedure: as §1

[18] = test system: P. aeruginosa SC-VMr04-05; format: cell-based, Pseudomonas aeruginosa; details: SC-VMr04-05, 24 h
Procedure: as §1

[19] = sacrificed 18 h after infection
[20] = sacrificed 40 h after infection

Question: With CC[C@H](C)[C@H](NC(=O)[C@H](CCCCN)NC(=O)[C@@H](N)CCCCN)C(=O)N[C@@H](CCCNC(=N)N)C(=O)N[C@H](C(=O)N[C@@H](CCCNC(=N)N)C(=O)N[C@@H](CC(C)C)C(=O)N[C@@H](CO)C(=O)N[C@@H](C)C(=O)NCCCC[C@H](NC(=O)[C@H](C)NC(=O)[C@H](CO)NC(=O)[C@H](CC(C)C)NC(=O)[C@H](CCCNC(=N)N)NC(=O)[C@@H](NC(=O)[C@H](CCCNC(=N)N)NC(=O)[C@@H](NC(=O)[C@H](CCCCN)NC(=O)[C@@H](N)CCCCN)[C@@H](C)CC)C(C)C)C(=O)NCCCC[C@H](NC(=O)[C@H](CCCCNC(=O)[C@H](C)NC(=O)[C@H](CO)NC(=O)[C@H](CC(C)C)NC(=O)[C@H](CCCNC(=N)N)NC(=O)[C@@H](NC(=O)[C@H](CCCNC(=N)N)NC(=O)[C@@H](NC(=O)[C@H](CCCCN)NC(=O)[C@@H](N)CCCCN)[C@@H](C)CC)C(C)C)NC(=O)[C@H](C)NC(=O)[C@H](CO)NC(=O)[C@H](CC(C)C)NC(=O)[C@H](CCCNC(=N)N)NC(=O)[C@@H](NC(=O)[C@H](CCCNC(=N)N)NC(=O)[C@@H](NC(=O)[C@H](CCCCN)NC(=O)[C@@H](N)CCCCN)[C@@H](C)CC)C(C)C)C(=O)NCCC(=O)O)C(C)C [M33, KKIRVRLSA] (I: H-KKIRVRLSAKK[βAla]-OH / II: H-KKIRVRLSAK / III: H-KKIRVRLSA / IV: H-KKIRVRLSA; amide I:10-IV:C, I:11-II:C, II:10-III:C; N-terminus assumed) as the compound, how does the “Bacterial count (mean ± SD) in Blood” value [1, 19] read?
Answer: Its value is <1 × 10^2 CFU/ml.

Question: And the “Bacterial count (mean ± SD) in Liver” value [1, 19]?
Answer: Its value is 3 × 10^5 ± 6.7 × 10^5 CFU/organ.

Question: What about the “Bacterial count (mean ± SD) in Spleen” value [1, 19] of the same compound?
Answer: Its value is 2.4 × 10^4 ± 5.3 × 10^4 CFU/organ.

Question: And the “Bacterial count (mean ± SD) in Blood” value [1, 20]?
Answer: The value was <1 × 10^2 CFU/ml.

Question: What about the “Bacterial count (mean ± SD) in Liver” value [1, 20] of the same compound?
Answer: Its value is <1 × 10^2 CFU/organ.

Question: And the “Bacterial count (mean ± SD) in Peritoneum” value [1, 20]?
Answer: The value was <1 × 10^2 CFU/ml.

Question: And the “Bacterial count (mean ± SD) in Spleen” value [1, 20]?
Answer: The value was <1 × 10^2 CFU/organ.

Question: What about the MIC [2] of the same compound?
Answer: The MIC was 3 µM (≈ 14 µg/mL).

Question: And the MIC [3]?
Answer: Its MIC is 3 µM (≈ 14 µg/mL).

Question: What about the MIC [4] of the same compound?
Answer: The MIC was 1.5 µM (≈ 7.02 µg/mL).

Question: And the EC50 ([5]; Raw 264.7 macrophages, LPS from K. pneumoniae ATCC15380, 5 ng/ml, read-out: EC50, block of TNF-α secretion)?
Answer: Its EC50 is 260 nM.

Question: What about the “Decrease of TNF-α production” value ([5]; at a concentration corresponding to MIC (1.5-3 μM), LPS from K. pneumoniae) of the same compound?
Answer: Its value is “more than 80%”.

Question: What about the Apparent toxicity signs [6] of the same compound?
Answer: The Apparent toxicity signs was “did not produce apparent toxicity signs”.

Question: And the “Antibacterial activity against E. coli TG1 cells (comparison of tetra-branched peptides, FIG. 1A)” value [7]?
Answer: Its value is “improved peptide activity”.

Question: What about the MIC [8] of the same compound?
Answer: Its MIC is 1.5 µM (≈ 7.02 µg/mL).

Question: What about the MIC [9] of the same compound?
Answer: Its MIC is 1.5 µM (≈ 7.02 µg/mL).

Question: What about the MIC [10] of the same compound?
Answer: Its MIC is 3 µM (≈ 14 µg/mL).

Question: What about the MIC [11] of the same compound?
Answer: Its MIC is 1.5 µM (≈ 7.02 µg/mL).

Question: What about the MIC [12] of the same compound?
Answer: The MIC was 1.5 µM (≈ 7.02 µg/mL).

Question: What about the MIC [13] of the same compound?
Answer: Its MIC is 1.5 µM (≈ 7.02 µg/mL).

Question: And the MIC [14]?
Answer: The MIC was 3 µM (≈ 14 µg/mL).

Question: And the MIC [15]?
Answer: The MIC was 0.7 µM (≈ 3.28 µg/mL).

Question: And the MIC [16]?
Answer: Its MIC is 1.5 µM (≈ 7.02 µg/mL).

Question: What about the MIC [17] of the same compound?
Answer: Its MIC is 0.3 µM (≈ 1.4 µg/mL).

Question: What about the MIC [18] of the same compound?
Answer: Its MIC is 3 µM (≈ 14 µg/mL).
